Values of other authors, collected in patent US20240148640A1, “TOPICAL OXYBUTYNIN FOR HOT FLASHES” (CELISTA PHARMACEUTICALS LLC, priority 2022, published 2024).

Compound: CCN(CC)CC#CCOC(=O)C(O)(c1ccccc1)C1CCCCC1 (centres unmarked) [oxybutynin]
- reduction of hot flashes (given orally (Leon-Ferre et al., 2020)): 75%
- frequency and intensity of hot flashes (women with frequent hot flashes, incl. breast cancer survivors on tamoxifen or aromatase inhibitors (Kligman et al., 2010)): reduced the frequency and intensity of hot flashes
